From US5977156A (priority 1996, dated 1999)
≈ marks a conversion by molar mass, not a printed value. Like-named read-outs stand apart in the source and are kept apart here.

Columns and labels:
[1] = system: Rhizoctonia solani (sheath blight); experiment: Rice seed treatment field trial, attack type 1 (sheath blight); assay type: in vivo, also called Pellicularia sasakii; details: vs insecticide-treated control plots, after 2 months
[2] = system: Helminthosporium oryzae (brown spot); experiment: Rice seed treatment field trial, attack type 2 (brown spot); assay type: in vivo, also called Cochliobolus miyabeanus; details: vs insecticide-treated control plots, after 2 months
[3] = system: Pyricularia oryzae (leaf blast); assay type: in vivo, also called Magnaporthe grisae; details: vs insecticide-treated control plots, after 2 months
[4] = system: Pyricularia oryzae (neck blast); assay type: in vivo; details: vs insecticide-treated control plots, after 2 months
[5] = system: Rhynchosporium oryzae (leaf scald); experiment: Rice seed treatment field trial, attack type 5 (leaf scald = leaf tip blight); assay type: in vivo; details: vs insecticide-treated control plots, after 2 months
[6] = system: Sheath rot (Acrocylindrium oryzae and/or Gaeumannomyces graminis and/or Helminthosporium oryzae); experiment: Rice seed treatment field trial, attack type 6 (sheath rot); assay type: in vivo; details: vs insecticide-treated control plots, after 2 months
[7] = system: Grain discoloration (Pseudomonas spp., Erwinia herbicola, Helminthosporium oryzae and/or Alternaria spp.); experiment: Rice seed treatment field trial, attack type 7 (grain discoloration); assay type: in vivo; details: vs insecticide-treated control plots
Sphacelotheca reiliana = experiment: Maize seed treatment against head smut; assay type: in vivo; details: maize (Adonis), 250 g/100 kg seeds, 3 months after sowing
Procedure: This example illustrates application against head smut (Sphacelotheca reiliana).
Maize seeds (variety Adonis) were treated in the proportion of 250 g of active material per 100 kg of seeds.
These seeds are sown in 9×9 cm pots filled with a mixture of compost and coarse sand which has been pre-infected by incorporation of Sphacelotheca reiliana spores according to 2 infectious doses: […] of substrate. Each pot contains 5 maize seeds.
These pots are then placed under glass on sand kept moist by regular sprinkling, at a temperature of 20° C. and a relative humidity of 60%.
Three months after sowing, the seedlings carrying the disease (presence or absence of smut in the maize inflorescences) are counted and the results shown in the table below (expressed as percentage) are obtained. The control seedlings correspond to pots filled with a substrate infected with the disease in which untreated maize seeds have been sown.

Fusarium moniliforme = experiment: Maize seed treatment against root rot; assay type: in vivo; details: maize (Pinnacle), control 92
Procedure: This example illustrates application against root rot (Fusarium moniliforme).
Maize seeds (variety Pinnacle) were treated in the proportion of 125 and 250 g of active material per 100 kg of seeds.
These seeds are sown in 7×7 cm pots filled with vermiculite in the proportion of 5 seeds per pot. Infection is carried out by introducing, into the vicinity of the seeds, in the upper part of the substrate, 10 ml of an aqueous suspension containing 400000 spores of Fusarium moniliforme per ml.
These pots are then maintained at 80% humidity for 3 weeks at 8° C. and then for 2 weeks at 16° C.
The seedlings carrying the disease (unemerged seedlings and seedlings with slowed and deformed growth) are then counted and the results shown in the table below (expressed as percentage) were obtained. The control seedlings correspond to pots in which untreated maize seeds have been sown, which seeds have been infected with the disease.

Microdochium nivale = experiment: Wheat seed treatment against snow mould; assay type: in vivo; details: wheat (Ixos), naturally infected, control 96
Procedure: This example illustrates application against snow mould (Microdochium nivale).
Wheat seeds (variety Ixos), naturally infected with Microdochium nivale, were treated in the proportion of 5, 10, 25, 50 and 100 g of active material per 100 kg of seeds.
(§1) These seeds are sown in 7×7 cm pots filled with a peat/pozzolana mixture in the proportion of 25 seeds per pot.
These pots are maintained at 5° C. and in darkness for 3 weeks and are then placed at 10° C. under artificial light for 1 week. They are finally placed under glass, on sand kept moist by regular sprinkling, at 20° C. and 60% relative humidity for 1 week.
The seedlings carrying the disease (unemerged seedlings and deformed seedlings) are then counted and the results shown in the table below (expressed as percentage) are obtained. The control seedlings correspond to pots in which wheat seeds, naturally infected with the disease, have been sown, which seeds have not been treated.

[8] = system: Puccinia recondita forma speciae tritici; experiment: Wheat seed treatment against brown rust; assay type: in vivo; details: wheat (Theseus), infected foliar area, control 61
Procedure: EXAMPLE 8 This example illustrates application against brown rust of wheat (Puccinia recondita forma speciae tritici).
Wheat seeds (variety Theseus) were treated in the proportion of 10, 25, 50 and 100 g of active material per 100 kg of seeds.
These seeds are sown in 7×7 cm pots filled with a peat/pozzolana mixture in the proportion of 40 to 50 seeds per pot.
These pots are maintained at 10° C. under artificial light for 3 weeks, so that they arrive at the growth stage known as the 1-2-leaf stage.
Infection is then carried out by spraying an aqueous suspension containing 100000 spores of Puccinia recondita per ml.
The pots are then placed at 20° C. and 100% relative humidity for 24 hours and then under glass, on sand kept moist by regular sprinkling, at 20° C. and 80% relative humidity for 10 days.
The infected foliar area of the 1st leaf is then quantified visually.
The results shown in the table below (expressed as percentage) are obtained. The control seedlings correspond to pots in which untreated wheat seeds have been sown, which seeds have been infected by the disease.

Pyrenophora graminea = experiment: Barley seed treatment against leaf stripe; assay type: in vivo; details: barley (Agneta), naturally infected, 100 g/100 kg seeds
Procedure: This example illustrates application against leaf stripe (Pyrenophora graminea).
Barley seeds (variety Agneta), naturally infected with Pyrenophora graminea, were treated in the proportion of 100 g of active material per 100 kg of seeds.
as §1
These pots are maintained at 5° C. and in darkness for 3 weeks and are then placed at 10° C. under artificial light for 1 week. They are finally placed under glass, on sand kept moist by regular sprinkling, at 20° C. and 60% relative humidity for 3 weeks.
The seedlings carrying the disease (seedlings carrying off-white streaks along the leaves) are then counted and the following results (expressed as percentage) are obtained. The control seedlings correspond to pots in which barley seeds, naturally infected with the disease, have been sown, which seeds have not been treated. Two successive tests were carried out.

Rhizoctonia solani = experiment: Cotton seed treatment against damping off; assay type: in vivo; details: cotton (DP 50), 17 days; for Total damping off (in %): pre-+post-emergence, control 80; for Pre-emergence damping off (in %): control 70
Procedure: This example illustrates application against damping off (Rhizoctonia solani).
Cotton seeds (variety DP 50) were treated in the proportion of 125, 250 and 500 g of active material per 100 kg of seeds.
These seeds are sown in 7×7 cm pots filled with a peat/pozzolana mixture which has been pre-infected by incorporation of 1 part of an aqueous suspension containing milled Rhizoctonia solani mycelium in 1600 parts of substrate. Each pot contains 5 cotton seeds.
These pots are then placed under glass at a temperature of 25° C. and at a relative humidity of 80% for 17 days.
The results with respect to early damping off (pre-emergence) and with respect to all the damping off attacks (pre-+post-emergence) are shown in the table below (expressed as percentage). The control seedlings correspond to pots filled with a substrate infected with the disease in which untreated cotton seeds have been sown.

Coniophora puteana = experiment: Inhibition of growth of wood-degrading fungus on agar; assay type: cell-based; details: agar culture medium, 20° C., read-out: IC50 (50% inhibition of the growth of the fungus)
Procedure: (§2) This example illustrates application against fungi which degrade wood.
(§3) Agar culture medium containing different doses of the active material to be tested is introduced into petri dishes.
(§4) Petri dishes with the same culture medium without the active material are prepared in order to act as control.
(§5) One day after the preparation of these petri dishes, agar implants supporting a fungal culture are deposited at the center of each petri dish. The fungi tested are: Serpula lacrymans, Coniophora puteana (dry and wet rots) and Gleophyllum trabeum.
(§6) The petri dishes are then placed at 20° C. until the results are recorded. The results are read when the untreated control culture has colonized virtually all the dish. The diameter of the fungal cultures is then measured and the concentration of active material causing 50% inhibition of the growth of the fungus (called the IC50) is calculated.

Gloeophyllum trabeum = experiment: as above; assay type: cell-based; details: agar culture medium, 20° C., read-out: IC50 (50% inhibition of the growth of the fungus)
Procedure: as §2, §3, §4, §5, §6

Serpula lacrymans = experiment: as above; assay type: cell-based; details: agar culture medium, 20° C., read-out: IC50 (50% inhibition of the growth of the fungus)
Procedure: as §2, §3, §4, §5, §6

[9] = Ex. 1: 40 g/100 kg rice seed, 150 kg/ha
[10] = Ex. 2: 40 g/100 kg rice seed, 200 kg/ha
[11] = Ex. 3: 40 g/100 kg rice seed, 150 kg/ha, pregerminated
[12] = Ex. 4: 40 g/100 kg rice seed, 200 kg/ha, pregerminated

SMILES: N#Cc1nn(-c2c(Cl)cc(C(F)(F)F)cc2Cl)c(N)c1[S+]([O-])C(F)(F)F (stereo not shown) [Compound A, 5-amino-3-cyano-1-(2,6-dichloro-4-trifluoromethyl)phenyl-4-trifluoromethylsulfinylpyrazole]
- number of sheaths attacked; result observed, expressed as percentage [1, 9]: 55 percentage
- number of sheaths attacked; result observed, expressed as percentage [1, 10]: 60 percentage
- number of sheaths attacked; result observed, expressed as percentage [1, 11]: 55 percentage
- number of sheaths attacked; result observed, expressed as percentage [1, 12]: 60 percentage
- area of leaves attacked; result observed, expressed as percentage [2, 9]: 79 percentage
- area of leaves attacked; result observed, expressed as percentage [2, 10]: 87 percentage
- area of leaves attacked; result observed, expressed as percentage [2, 11]: 79 percentage
- area of leaves attacked; result observed, expressed as percentage [2, 12]: 87 percentage
- number of sheaths attacked; result observed, expressed as percentage [3, 9]: 82 percentage
- number of sheaths attacked; result observed, expressed as percentage [3, 10]: 90 percentage
- number of sheaths attacked; result observed, expressed as percentage [3, 11]: 82 percentage
- number of sheaths attacked; result observed, expressed as percentage [3, 12]: 90 percentage
- number of plants attacked just below the ear; result observed, expressed as percentage [4, 9]: 35 percentage
- number of plants attacked just below the ear; result observed, expressed as percentage [4, 10]: 39 percentage
- number of plants attacked just below the ear; result observed, expressed as percentage [4, 11]: 35 percentage
- number of plants attacked just below the ear; result observed, expressed as percentage [4, 12]: 39 percentage
- number of leaves having a withered part; result observed, expressed as percentage [5, 9]: 57 percentage
- number of leaves having a withered part; result observed, expressed as percentage [5, 10]: 63 percentage
- number of leaves having a withered part; result observed, expressed as percentage [5, 11]: 57 percentage
- number of leaves having a withered part; result observed, expressed as percentage [5, 12]: 63 percentage
- number of sheaths attacked; result observed, expressed as percentage [6, 9]: 80 percentage
- number of sheaths attacked; result observed, expressed as percentage [6, 10]: 88 percentage
- number of sheaths attacked; result observed, expressed as percentage [6, 11]: 80 percentage
- number of sheaths attacked; result observed, expressed as percentage [6, 12]: 88 percentage
- number of grains in which the normal yellow color is replaced by brown blemishes; result observed, expressed as percentage [7, 9]: 63 percentage
- number of grains in which the normal yellow color is replaced by brown blemishes; result observed, expressed as percentage [7, 10]: 70 percentage
- number of grains in which the normal yellow color is replaced by brown blemishes; result observed, expressed as percentage [7, 11]: 63 percentage
- number of grains in which the normal yellow color is replaced by brown blemishes; result observed, expressed as percentage [7, 12]: 70 percentage
- Number of diseased seedlings (in %) (Sphacelotheca reiliana; infectious dose 0.125 g/kg, control 67): 46%
- Number of diseased seedlings (in %) (Sphacelotheca reiliana; infectious dose 0.25 g/kg, control 71): 40%
- Number of diseased seedlings (in %) (Fusarium moniliforme; 125 g/100 kg seeds): 72%
- Number of diseased seedlings (in %) (Fusarium moniliforme; 250 g/100 kg seeds): 76%
- Number of diseased seedlings (in %) (Microdochium nivale; 5 g/100 kg seeds): 89%
- Number of diseased seedlings (in %) (Microdochium nivale; 10 g/100 kg seeds): 82%
- Number of diseased seedlings (in %) (Microdochium nivale; 25 g/100 kg seeds): 89%
- Number of diseased seedlings (in %) (Microdochium nivale; 50 g/100 kg seeds): 85%
- Number of diseased seedlings (in %) (Microdochium nivale; 100 g/100 kg seeds): 80%
- Infection of the 1st leaf (in %) ([8]; 10 g/100 kg seeds): 47%
- Infection of the 1st leaf (in %) ([8]; 25 g/100 kg seeds): 37%
- Infection of the 1st leaf (in %) ([8]; 50 g/100 kg seeds): 17%
- Infection of the 1st leaf (in %) ([8]; 100 g/100 kg seeds): 2%
- Number of diseased seedlings (in %) (Pyrenophora graminea; Test No. 1, control 50): 34%
- Number of diseased seedlings (in %) (Pyrenophora graminea; Test No. 2, control 44): 29%
- Total damping off (in %) (Rhizoctonia solani; 125 g/100 kg seeds): 50%
- Pre-emergence damping off (in %) (Rhizoctonia solani; 125 g/100 kg seeds): 45%
- Total damping off (in %) (Rhizoctonia solani; 250 g/100 kg seeds): 60%
- Pre-emergence damping off (in %) (Rhizoctonia solani; 250 g/100 kg seeds): 45%
- Total damping off (in %) (Rhizoctonia solani; 500 g/100 kg seeds): 50%
- Pre-emergence damping off (in %) (Rhizoctonia solani; 500 g/100 kg seeds): 10%
- IC50 (Coniophora puteana): 16.3 µg/mL (≈ 37.3 µM)
- IC50 (Gloeophyllum trabeum): 0.3 µg/mL (≈ 0.686 µM)
- IC50 (Serpula lacrymans): 14.5 µg/mL (≈ 33.2 µM)
